Patent US9513294B2, “Megastokes amino-triazolyl-BODIPY compounds and applications to live neuron staining and human serum albumin FA1 drug site probing” (National University of Singapore, priority 2012, dated 2016)
Each block holds one compound with its values, some of them ahead of it.

What was measured:
[1] = Absorbance and fluorescence emission spectra (SpectraMax M2); format: physicochemical; conditions: for λmax Absorp. (nm) / λmax Emission (nm): MKCA compound library; for λmax Absorp. (nm) / λmax Abs. (nm): absorbance maximum; for λmax Emission (nm) / λmax Em. (nm): fluorescence emission maximum; for λmax Abs. (nm) / λmax Em. (nm): MKAC compound library
Summary of the method: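 Absorbance and emission maxima measured on a SpectraMax M2 spectrophotometer, which also gave quantum yield data; analysis in GraphPrism.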

[2] = Quantum yield measurements versus Acridine Yellow in EtOH; format: physicochemical; conditions: for φ (quantum yield): excitation 460 nm; for φ (%): quantum yield
Summary of the method: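 Fluorescence quantum yield is relative to Acridine Yellow in EtOH (Φ 0.47), with excitation at 460 nm. Integrated emission at 510–700 nm was corrected for absorbance at the excitation wavelength and for solvent refractive index.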

SMILES: CN(Cc1ccccc1)C1=[N+]2C(=C(c3ccc(NC(=O)CCl)cc3)c3ccc(-n4cc(CCc5ccccc5)nn4)n3[B-]2(F)F)C=C1 [MKCA195-19]
λmax Absorp. (nm) [1]: 467 nm
λmax Emission (nm) [1]: 586 nm
φ (%) ([2]; MKCA compound library): 6.77%

SMILES: Nc1ccc(C2=C3C=CC(N4CCCCC4)=[N+]3[B-](F)(F)n3c2ccc3-n2cc(CCc3ccccc3)nn2)cc1 [BDC-19]
λmax Absorp. ([1]; BDC library, Table 2): 476 nm
λmax Emission ([1]; BDC library, Table 2): 594 nm
φ (quantum yield) ([2]; BDC library, Table 2): 0.08%

SMILES: O=C(CCl)Nc1ccc(C2=C3C=CC(N4CCCCC4)=[N+]3[B-](F)(F)n3c2ccc3-n2cc(CCc3ccccc3)nn2)cc1 [BDCCA-19]
λmax Absorp. ([1]; BDCCA library, Table 4): 466 nm
λmax Emission ([1]; BDCCA library, Table 4): 578 nm
φ (quantum yield) ([2]; BDCCA library, Table 4): 1.0%

SMILES: O=C(CCl)Nc1ccc(C2=C3C=CC(N4CCCCC4)=[N+]3[B-](F)(F)n3c2ccc3-n2cc(C3CCCC3)nn2)cc1 [BDCCA-5]
λmax Absorp. ([1]; BDCCA library, Table 4): 468 nm
λmax Emission ([1]; BDCCA library, Table 4): 588 nm
φ (quantum yield) ([2]; BDCCA library, Table 4): 0.9%

SMILES: O=C(CCl)Nc1ccc(C2=C3C=CC(N4CCCCC4)=[N+]3[B-](F)(F)n3c2ccc3-n2cc(-c3cc(C(F)(F)F)cc(C(F)(F)F)c3)nn2)cc1 [BDCCA-30]
λmax Absorp. ([1]; BDCCA library, Table 4): 458 nm
λmax Emission ([1]; BDCCA library, Table 4): 556 nm
φ (quantum yield) ([2]; BDCCA library, Table 4): 2.6%

SMILES: Cc1cccc(-c2cn(-c3ccc4n3[B-](F)(F)[N+]3=C(N5CCCCC5)C=CC3=C4c3ccc(N)cc3)nn2)c1 [BDC-45]
λmax Absorp. ([1]; BDC library, Table 2): 469 nm
λmax Emission ([1]; BDC library, Table 2): 556 nm
φ (quantum yield) ([2]; BDC library, Table 2): 0.42%

SMILES: CN(Cc1ccccc1)Cc1cn(-c2ccc3n2[B-](F)(F)[N+]2=C(N4CCCCC4)C=CC2=C3c2ccc(NC(=O)CCl)cc2)nn1 [BDCCA-18]
λmax Absorp. ([1]; BDCCA library, Table 4): 465 nm
λmax Emission ([1]; BDCCA library, Table 4): 587 nm
φ (quantum yield) ([2]; BDCCA library, Table 4): 0.7%

SMILES: CC(C)(C)c1cn(-c2ccc3n2[B-](F)(F)[N+]2=C(N4CCCCC4)C=CC2=C3c2ccc(N)cc2)nn1 [BDC-1]
λmax Absorp. ([1]; BDC library, Table 2): 475 nm
λmax Emission ([1]; BDC library, Table 2): 593 nm
φ (quantum yield) ([2]; BDC library, Table 2): 0.18%

SMILES: CN(Cc1ccccc1)C1=[N+]2C(=C(c3ccc(N)cc3)c3ccc(-n4cc(C5CC5)nn4)n3[B-]2(F)F)C=C1 [MK195-4]
λmax Absorp. ([1]; MK library, Table 5): 476 nm
λmax Emission ([1]; MK library, Table 5): 566 nm
φ (quantum yield) ([2]; MK library, Table 5): 0.34%

SMILES: COc1ccc2cc(-c3cn(-c4ccc5n4[B-](F)(F)[N+]4=C(N6CCCCC6)C=CC4=C5c4ccc(N)cc4)nn3)ccc2c1 [BDC-22]
λmax Absorp. ([1]; BDC library, Table 2): 472 nm
λmax Emission ([1]; BDC library, Table 2): 579 nm
φ (quantum yield) ([2]; BDC library, Table 2): 0.28%

SMILES: O=C(CCl)Nc1ccc(C2=C3C=CC(N4CCCCC4)=[N+]3[B-](F)(F)n3c2ccc3-n2cc(C3=CCCCC3)nn2)cc1 [BDCCA-37]
λmax Absorp. ([1]; BDCCA library, Table 4): 465 nm
λmax Emission ([1]; BDCCA library, Table 4): 565 nm
φ (quantum yield) ([2]; BDCCA library, Table 4): 1.7%

SMILES: Nc1ccc(C2=C3C=CC(NCc4cc(F)cc(F)c4)=[N+]3[B-](F)(F)n3c2ccc3-n2cc(CC3CCCCC3)nn2)cc1 [MK412-8]
λmax Absorp. ([1]; MK library, Table 5): 476 nm
λmax Emission ([1]; MK library, Table 5): 563 nm
φ (quantum yield) ([2]; MK library, Table 5): 0.56%

SMILES: CN(Cc1ccccc1)Cc1cn(-c2ccc3n2[B-](F)(F)[N+]2=C(NCc4cc(F)cc(F)c4)C=CC2=C3c2ccc(N)cc2)nn1 [MK412-18]
λmax Absorp. ([1]; MK library, Table 5): 473 nm
λmax Emission ([1]; MK library, Table 5): 563 nm
φ (quantum yield) ([2]; MK library, Table 5): 1.02%

SMILES: Nc1ccc(C2=C3C=CC(N4CCc5ccccc5C4)=[N+]3[B-](F)(F)n3c2ccc3-n2cc(CCc3ccccc3)nn2)cc1 [MK66-19]
λmax Absorp. ([1]; MK library, Table 5): 480 nm
λmax Emission ([1]; MK library, Table 5): 585 nm
φ (quantum yield) ([2]; MK library, Table 5): 0.13%

SMILES: CC(C)(C)c1cn(-c2ccc3n2[B-](F)(F)[N+]2=C(N4CCCCC4)C=CC2=C3c2ccc(NC(=O)CCl)cc2)nn1 [BDCCA-1]
λmax Absorp. ([1]; BDCCA library, Table 4): 468 nm
λmax Emission ([1]; BDCCA library, Table 4): 581 nm
φ (quantum yield) ([2]; BDCCA library, Table 4): 0.7%

SMILES: Nc1ccc(C2=C3C=CC(N4CCc5ccccc5C4)=[N+]3[B-](F)(F)n3c2ccc3-n2cc(CC3CCCCC3)nn2)cc1 [MK66-8]
λmax Absorp. ([1]; MK library, Table 5): 480 nm
λmax Emission ([1]; MK library, Table 5): 590 nm
φ (quantum yield) ([2]; MK library, Table 5): 0.12%

SMILES: CC(=O)Nc1ccc(C2=C3C=CC(N4CC(C)OC(C)C4)=[N+]3[B-](F)(F)n3c2ccc3-n2cc(C3CCCC3)nn2)cc1 (stereo not drawn) [MKAC20-5]
λmax Abs. (nm) [1]: 467 nm
λmax Em. (nm) [1]: 580 nm
φ (%) ([2]; MKAC compound library): 3.47%

Now from value to compound:

λmax Absorp. ([1]; MK library, Table 5): 473 nm
λmax Emission ([1]; MK library, Table 5): 562 nm
φ (quantum yield) ([2]; MK library, Table 5): 2.92%
SMILES: CCCc1cn(-c2ccc3n2[B-](F)(F)[N+]2=C(NCc4ccccc4C)C=CC2=C3c2ccc(N)cc2)nn1 [MK101-48]

λmax Abs. (nm) [1]: 465 nm
λmax Em. (nm) [1]: 561 nm
φ (%) ([2]; MKAC compound library): 20.91%
SMILES: CCCCCC(O)c1cn(-c2ccc3n2[B-](F)(F)[N+]2=C(NCc4ccccc4OCC)C=CC2=C3c2ccc(NC(C)=O)cc2)nn1 (stereo not drawn) [MKAC103-69]

λmax Abs. (nm) [1]: 465 nm
λmax Em. (nm) [1]: 563 nm
φ (%) ([2]; MKAC compound library): 21.14%
SMILES: CC(=O)Nc1ccc(C2=C3C=CC(NCc4ccccc4C)=[N+]3[B-](F)(F)n3c2ccc3-n2cc(CC3CCCCC3)nn2)cc1 [MKAC101-8]

λmax Absorp. ([1]; MK library, Table 5): 475 nm
λmax Emission ([1]; MK library, Table 5): 565 nm
φ (quantum yield) ([2]; MK library, Table 5): 0.58%
SMILES: Cc1ccccc1CNC1=[N+]2C(=C(c3ccc(N)cc3)c3ccc(-n4cc(C5CCCC5)nn4)n3[B-]2(F)F)C=C1 [MK101-5]

λmax Absorp. (nm) [1]: 466 nm
λmax Emission (nm) [1]: 585 nm
φ (%) ([2]; MKCA compound library): 2.54%
SMILES: CC1CN(C2=[N+]3C(=C(c4ccc(NC(=O)CCl)cc4)c4ccc(-n5cc(CN(C)Cc6ccccc6)nn5)n4[B-]3(F)F)C=C2)CC(C)O1 (stereo not drawn) [MKCA20-18]

λmax Absorp. (nm) [1]: 462 nm
λmax Emission (nm) [1]: 569 nm
φ (%) ([2]; MKCA compound library): 3.42%
SMILES: CCCCCC(O)c1cn(-c2ccc3n2[B-](F)(F)[N+]2=C(N4CCCC4)C=CC2=C3c2ccc(NC(=O)CCl)cc2)nn1 (stereo not drawn) [MKCA215-69]

λmax Absorp. (nm) [1]: 465 nm
λmax Emission (nm) [1]: 563 nm
φ (%) ([2]; MKCA compound library): 20.00%
SMILES: CCCc1cn(-c2ccc3n2[B-](F)(F)[N+]2=C(NCc4cc(OC)ccc4OC)C=CC2=C3c2ccc(NC(=O)CCl)cc2)nn1 [MKCA181-48]

λmax Abs. (nm) [1]: 464 nm
λmax Em. (nm) [1]: 561 nm
φ (%) ([2]; MKAC compound library): 18.28%
SMILES: COc1ccc(OC)c(CNC2=[N+]3C(=C(c4ccc(NC(C)=O)cc4)c4ccc(-n5cc(CN(C)Cc6ccccc6)nn5)n4[B-]3(F)F)C=C2)c1 [MKAC181-18]

λmax Abs. (nm) [1]: 466 nm
λmax Em. (nm) [1]: 577 nm
φ (%) ([2]; MKAC compound library): 3.65%
SMILES: CC(=O)Nc1ccc(C2=C3C=CC(N(C)Cc4ccccc4)=[N+]3[B-](F)(F)n3c2ccc3-n2cc(CC3CCCCC3)nn2)cc1 [MKAC195-8]

λmax Abs. (nm) [1]: 461 nm
λmax Em. (nm) [1]: 566 nm
φ (%) ([2]; MKAC compound library): 2.70%
SMILES: CCCc1cn(-c2ccc3n2[B-](F)(F)[N+]2=C(N4CCCC4)C=CC2=C3c2ccc(NC(C)=O)cc2)nn1 [MKAC215-48]

λmax Absorp. (nm) [1]: 465 nm
λmax Emission (nm) [1]: 581 nm
φ (%) ([2]; MKCA compound library): 2.58%
SMILES: CN(Cc1ccccc1)C1=[N+]2C(=C(c3ccc(NC(=O)CCl)cc3)c3ccc(-n4cc(CO)nn4)n3[B-]2(F)F)C=C1 [MKCA195-70]

λmax Abs. (nm) [1]: 469 nm
λmax Em. (nm) [1]: 583 nm
φ (%) ([2]; MKAC compound library): 2.40%
SMILES: CCCC(C)c1cn(-c2ccc3n2[B-](F)(F)[N+]2=C(N4CCc5ccccc5C4)C=CC2=C3c2ccc(NC(C)=O)cc2)nn1 (stereo not drawn) [MKAC66-3]

λmax Absorp. (nm) [1]: 462 nm
λmax Emission (nm) [1]: 562 nm
φ (%) ([2]; MKCA compound library): 21.53%
SMILES: Cc1ccccc1CNC1=[N+]2C(=C(c3ccc(NC(=O)CCl)cc3)c3ccc(-n4cc(CN(C)Cc5ccccc5)nn4)n3[B-]2(F)F)C=C1 [MKCA101-18]

λmax Abs. (nm) [1]: 465 nm
λmax Em. (nm) [1]: 564 nm
φ (%) ([2]; MKAC compound library): 13.98%
SMILES: COc1ccc(OC)c(CNC2=[N+]3C(=C(c4ccc(NC(C)=O)cc4)c4ccc(-n5cc(CC6CCCCC6)nn5)n4[B-]3(F)F)C=C2)c1 [MKAC181-8]

λmax Absorp. (nm) [1]: 464 nm
λmax Emission (nm) [1]: 562 nm
φ (%) ([2]; MKCA compound library): 6.28%
SMILES: O=C(CCl)Nc1ccc(C2=C3C=CC(NCc4cc(F)cc(F)c4)=[N+]3[B-](F)(F)n3c2ccc3-n2cc(CO)nn2)cc1 [MKCA412-70]

λmax Absorp. ([1]; BDCAC library, Table 3): 467 nm
λmax Emission ([1]; BDCAC library, Table 3): 575 nm
φ (quantum yield) ([2]; BDCAC library, Table 3): 1.3%
SMILES: CCCCCCCCCCc1cn(-c2ccc3n2[B-](F)(F)[N+]2=C(N4CCCCC4)C=CC2=C3c2ccc(NC(C)=O)cc2)nn1 [BDCAC-49]

λmax Absorp. (nm) [1]: 469 nm
λmax Emission (nm) [1]: 584 nm
φ (%) ([2]; MKCA compound library): 3.18%
SMILES: CCCc1cn(-c2ccc3n2[B-](F)(F)[N+]2=C(N4CCc5ccccc5C4)C=CC2=C3c2ccc(NC(=O)CCl)cc2)nn1 [MKCA66-48]
